{"source": "patent US20250183494A1", "about": "“Standardized Bioflavonoid Composition for Regulation of Homeostasis of Host Defense Mechanism” (priority 2021, published 2025)", "key": {"[1]": {"test_system": "LPS-induced acute lung injury", "test": "LPS-induced acute lung injury, lung histopathology (H&E)", "assay_type": "in vivo, Sprague Dawley rats", "settings": "UP446 high dose 250 mg/kg, Sodium Butyrate 500 mg/kg", "procedure": "The severity of lung damage as a result of intratracheal LPS was assessed using HandE-stained lung tissue. The left lobe of the lung was used for the histopathology analysis."}, "LPS-induced sepsis": {"test_system": "LPS-induced sepsis", "test": "LPS-induced sepsis model, composition vs constituents, Colby synergy", "assay_type": "in vivo, CD-1 mice", "procedure": "On the 8th day, mice were injected intraperitoneally (i.p.) with 25 mg/kg LPS dissolved in PBS at 10 mL/kg. Mice in the UP894-II-treated group received a daily dose of UP894-II at 250 mg/kg. All mice continued to receive the treatment daily for the duration of study, which was completed on the 6th day post LPS injection. Following a median lethal dose of LPS (25 mg/kg) by i.p. administration, animals are expected to develop sepsis within a few hours. If untreated, mice would start to die within 24 hours. Animals were observed hourly. In the current study, we monitored the mice for 6 days after LPS injection.\nFor the blending of these plant extracts to have unexpected synergy, the observed inhibition needs to be greater than the calculated value.\nThe LPS-induced survival study was utilized to evaluate possible synergy or unexpected effects of extracts from Scutellaria and Acacia, when formulated together in a specific ratio, using Colby's method."}, "TNF-α": {"test_system": "TNF-α", "test": "LPS-induced acute lung injury, serum TNF-α ELISA", "assay_type": "in vivo, Sprague Dawley rats", "settings": "UP446 250 mg/kg, SB 500 mg/kg", "procedure": "The presence of TNF-α in undiluted rat serum was measured using the rat TNF-α Quantikine ELISA kit from RandD Systems (product #: RTA00) as follows: undiluted serum was added to a microplate coated with TNF-α antibody. […] The washing was repeated, and enzyme substrate was added to the plate."}, "IL-1β": {"test_system": "IL-1β", "test": "LPS-induced acute lung injury, serum IL-1β ELISA", "assay_type": "in vivo, Sprague Dawley rats", "settings": "UP446 250 mg/kg, SB 500 mg/kg", "procedure": "The presence of IL-1β in undiluted rat serum was measured using the Rat IL-1β Quantikine ELISA kit from RandD Systems (product #: RLB00) as follows: undiluted serum was added to a microplate coated with IL-1β antibody. […] The washing was repeated, and enzyme substrate was added to the plate."}, "[2]": {"test_system": "LPS-induced endotoxemia and sepsis", "test": "LPS-induced sepsis model, survival (UP446 study)", "assay_type": "in vivo, CD-1 mice", "excerpt": "This model used survival rate of animals as the end point measurement (Wang et al., 1999). Lipopolysaccharide (LPS) is an integral component of the outer membrane of gram-negative bacteria and a major contributing factor in the initiation of a generalized inflammatory process that may lead to endotoxin shock. It is a state mediated principally by macrophages/monocytes and is attributed to excessive production of several early phase cytokines such as TNF-α, IL-1, IL-6 and gamma interferon (IFN-γ) as well as a late-stage mediator, HMGB1. Following a median lethal dose of LPS (25 mg/kg) administration dissolved in phosphate-buffered saline (PBS; Lifeline, Lot #07641), animals develop endotoxemia and HMGB1 would be detected in the serum at 8 hours and reach to a peak and plateau levels from 16 to 32 hours after LPS. If untreated, mice would start to die within 24 hours. In the current study, we monitored the mice for 4 days after LPS injection. […] The following groups were included in the study:\nIn this model, mice were pretreated with bioflavonoid composition—UP446, illustrated in the Example 4, for a week (7 days) before lethal dose intraperitoneal injection of LPS (E. coli, 055:B5; Sigma, St. Louis, MO; Lot #081275) at 25 mg/kg with a 10 mL/kg PBS volume. Animals were observed hourly. Given the fact that sodium butyrate improved LPS-induced injury in mice through suppression of HMGB1 release, we chose this compound as a positive control for our study (Li et al., 2018)."}, "[3]": {"settings": "SB 500, UP894-II 250, RM405 200, RM406 50 mg/kg"}, "[4]": {"settings": "SB 500, UP894-II 250, RM405 200, RM406 50 mg/kg, listed as SB"}, "[5]": {"settings": "per interval, SB 500, UP894-II 250, RM405 200, RM406 50 mg/kg oral, N=13"}, "[6]": {"settings": "cumulative, LPS 25 mg/kg i.p., UP446 250, Sodium Butyrate 500 mg/kg oral, N=8"}}, "note": "Values joined by “and” are separate entries in the source; they are usually repeats but may differ in a detail not shown here. Equal values may be shown once."}
{"smiles": "CCCC(=O)[O-].[Na+]", "note": "[Sodium Butyrate]", "values": [{"measurement": "Infiltration of PMN cell, score 0-4", "setting": "[1]", "value": "2.75 ± 0.78"}, {"measurement": "Overall Lung Damage Severity, score 0-4", "setting": "[1]", "value": "3.05 ± 0.42"}, {"measurement": "Pulmonary Edema, score 0-4", "setting": "[1]", "value": "2.35 ± 0.95"}, {"measurement": "Mortality rate, 0 hr", "setting": "LPS-induced sepsis; [3]", "value": 0.00, "unit": "%"}, {"measurement": "Mortality rate, 24 hr post LPS", "setting": "LPS-induced sepsis; [3]", "value": 15.38, "unit": "%"}, {"measurement": "Mortality rate, 36 hr post LPS", "setting": "LPS-induced sepsis; [3]", "value": 46.15, "unit": "%"}, {"measurement": "Mortality rate, 48 hr post LPS", "setting": "LPS-induced sepsis; [3]", "value": 53.85, "unit": "%"}, {"measurement": "Mortality rate, 60 hr post LPS", "setting": "LPS-induced sepsis; [3]", "value": 61.54, "unit": "%"}, {"measurement": "Mortality rate, 72 hr post LPS", "setting": "LPS-induced sepsis; [3]", "value": 61.54, "unit": "%"}, {"measurement": "Mortality rate, 96 hr post LPS", "setting": "LPS-induced sepsis; [3]", "value": 69.23, "unit": "%"}, {"measurement": "Mortality rate, 120 hr post LPS", "setting": "LPS-induced sepsis; [3]", "value": 69.23, "unit": "%"}, {"measurement": "Mortality rate, 144 hr post LPS (end of observation)", "setting": "LPS-induced sepsis; [3]", "value": 69.23, "unit": "%"}, {"measurement": "Survival rate, 0 hr", "setting": "LPS-induced sepsis; [3]", "value": 100.0, "unit": "%"}, {"measurement": "Survival rate, 24 hr post LPS", "setting": "LPS-induced sepsis; [3]", "value": 84.6, "unit": "%"}, {"measurement": "Survival rate, 48 hr post LPS", "setting": "LPS-induced sepsis; [3]", "value": 46.2, "unit": "%"}, {"measurement": "Survival rate, 60 hr post LPS", "setting": "LPS-induced sepsis; [3]", "value": 38.5, "unit": "%"}, {"measurement": "Survival rate, 96 hr post LPS", "setting": "LPS-induced sepsis; [3]", "value": 30.8, "unit": "%"}, {"measurement": "Survival rate, 120 hr post LPS", "setting": "LPS-induced sepsis; [3]", "value": 30.8, "unit": "%"}, {"measurement": "Survival rate, 144 hr post LPS (end of observation)", "setting": "LPS-induced sepsis; [3]", "value": 30.8, "unit": "%"}, {"measurement": "Survival rate, 36 hr post LPS", "setting": "LPS-induced sepsis; [4]", "value": "53.9% and 53.8%"}, {"measurement": "Survival rate, 72 hr post LPS", "setting": "LPS-induced sepsis; [4]", "value": 38.5, "unit": "%"}, {"measurement": "Number of deceased animals post LPS, 24 hours", "setting": "LPS-induced sepsis; [5]", "value": 2}, {"measurement": "Number of deceased animals post LPS, 36 hours", "setting": "LPS-induced sepsis; [5]", "value": 4}, {"measurement": "Number of deceased animals post LPS, 48 hours", "setting": "LPS-induced sepsis; [5]", "value": 1}, {"measurement": "Number of deceased animals post LPS, 60 hours", "setting": "LPS-induced sepsis; [5]", "value": 1}, {"measurement": "Number of deceased animals post LPS, 72 hours", "setting": "LPS-induced sepsis; [5]", "value": 0}, {"measurement": "Number of deceased animals post LPS, 96 hours", "setting": "LPS-induced sepsis; [5]", "value": 1}, {"measurement": "Number of deceased animals post LPS, 120 hours", "setting": "LPS-induced sepsis; [5]", "value": 0}, {"measurement": "Number of deceased animals post LPS, 144 hours", "setting": "LPS-induced sepsis; [5]", "value": 0}, {"measurement": "Survived", "setting": "LPS-induced sepsis; through 144 hours post LPS, N=13", "value": 4}, {"measurement": "Reduction in serum TNF-α level vs vehicle control", "setting": "TNF-α", "value": 67.9, "unit": "%"}, {"measurement": "Reduction in serum IL-1β level vs vehicle", "setting": "IL-1β", "value": 65.3, "unit": "%"}, {"measurement": "Survival rate", "setting": "[2]; 48 hours after LPS injection, UP446 250, SB 500 mg/kg", "value": "half of the animals were deceased"}, {"measurement": "# of Death after LPS, 24 hr", "setting": "[2]; [6]", "value": 2}, {"measurement": "# of Death after LPS, 32 hr", "setting": "[2]; [6]", "value": 3}, {"measurement": "# of Death after LPS, 34 hr", "setting": "[2]; [6]", "value": 3}, {"measurement": "# of Death after LPS, 48 hr", "setting": "[2]; [6]", "value": 4}, {"measurement": "# of Death after LPS, 58 hr", "setting": "[2]; [6]", "value": 4}, {"measurement": "# of Death after LPS, 72 hr", "setting": "[2]; [6]", "value": 4}, {"measurement": "# of Death after LPS, 82 hr", "setting": "[2]; [6]", "value": 4}]}
